In one assay the test system is HSV-1 KOS strain. Briefly: Synergistic studies of acyclovir and the title compound of example 9 in the cell culture assay, HSV-1 KOS strain. Type of assay: cell-based, Herpes simplex virus type 1. To be noted: for EC50: MOI = 0.05 PFU/cell. The procedure: BHK-21 cells clone 13 (ATCC CCL10) were incubated for two days in 850 cm^2 roller bottles (2×10^7 cells/bottle) with alpha-MEM medium (Gibco Canada Inc., Burlington, Ontario, Canada) supplemented with 8% (v/v) fetal bovine serum (FBS, Gibco Canada, Inc.). The cells were trypsinized and then transferred to fresh media in a 96-well microtiter plate at a density of 50,000 cells per well in 100 μL. The cells were incubated at 37° for a period of 6 hours to allow adhesion to the plate. The cells then were washed once with 100 μL of alpha-MEM supplemented with 0.5% FBS (v/v) and incubated with 100 μL of the same media for 3 days. After this period of serum starvation, the low serum media was removed. The cells were washed once with 100 μL BBMT and incubated for two hours in 100 μL of the same media. {Note: BBMT medium is described by P. Brazeau et al., Proc. Natl. Acad. Sci. U.S.A., 79, 7909 (1980).}
Thereafter, the cells were infected with HSV-1 strain F or KOS (multiplicity of infection =0.05 PFU/cell) in 50 μL of BBMT medium. Following one hour of virus absorption at 37°, the media was removed and the cells were washed with BBMT (2×100 μL). The cells were incubated with or without 100 μL of the appropriate concentration of test reagent in BBMT medium. After 24 hours of incubation at 37°, the extent of viral replication was determined by an ELISA assay; for instance, the following assay that detects the late glycoprotein C of HSV-1.
Cells were fixed in a microtiter plate with 100 μL of 0.063% glutaraldehyde in phosphate buffered saline for 30 minutes at room temperature. The microtiter plate was then washed once with casein blocking solution and blocked with 200 μL of the same solution for one hour at room temperature. Thereafter, 100 μL of mAB Cll recognizing HSV-1 gC envelope protein [see E. Trybala et al., Journal of General Virology, 75, 743 (1994)] was added to each well for two hours at room temperature. The plate was washed three times with phosphate buffered saline containing 0.05% polyoxyethylene (20) sorbitan monooleate. The cells were and incubated with 100 μL of sheep anti-mouse IgC horseradish peroxidase for one hour at room temperature in the dark.
The plate then was washed three times with 200 μL of the above-noted phosphate buffer saline preparation, and then once with 0.1M sodium citrate (pH 4.5). Thereafter, 100 μL of orthophenylenediamine dihydrochloride (OPD, Gibco, Canada Inc.) was added to each well. The plate was agitated on a microplate shaker for 30 minutes in the dark. Color development was monitored at 450 nm using a microplate spectrophotometer.
SAS was used to calculate % inhibition of viral replication and to generate ECl50 values.
The results are illustrated in accompanying FIG. 1.
More explicitly with reference to the isobole method, this method requires experimental data generated for the two test compounds, each alone and in different combinations. In this way selected concentrations of the title compound of example 9 (EC5, EC10, EC20 and EC30) were added to a given concentration of ACV and the EC50 's were evaluated as described previously. For these experiments, the EC5, EC10, EC20 and EC30 of the title compound of example 9 (i.e. the test compound) were derived from inhibition curves previously obtained. An isobologram is generated using for the Y axis a value termed FEC60 (ACV) (which is the ratio of the concentration of ACV required to inhibit HSV replication by 60% in the presence of a fixed concentration of the test compound to the concentration required in the absence of the test compound). This is plotted against a term representing the ratio of the fixed concentration of the test compound to the concentration of the test compound that reduced inhibition of HSV replication in the absence of ACV (the X axis).
The following TABLE III is illustrative of results obtained when combinations of ACV and the title compound of example 9 (TC) were evaluated for their antiherpes activity against HSV-1. […]

In a further assay the test system is HSV-1 strain F. Put plainly: Inhibition of HSV-1 replication in cell culture (BHK-21 cells, ELISA of glycoprotein C), strain F. Type of assay: cell-based, Herpes simplex virus type 1. The settings on record: 24 hours incubation, read-out: EC50 (inhibition of viral replication). How it is done: BHK-21 cells clone 13 (ATCC CCL10) were incubated for two days in 850 cm^2 roller bottles (2×10^7 cells/bottle) with alpha-MEM medium (Gibco Canada Inc., Burlington, Ontario, Canada) supplemented with 8% (v/v) fetal bovine serum (FBS, Gibco Canada, Inc.). The cells were trypsinized and then transferred to fresh media in a 96-well microtiter plate at a density of 50,000 cells per well in 100 μL. The cells were incubated at 37° for a period of 6 hours to allow adhesion to the plate. The cells then were washed once with 100 μL of alpha-MEM supplemented with 0.5% FBS (v/v) and incubated with 100 μL of the same media for 3 days. After this period of serum starvation, the low serum media was removed. The cells were washed once with 100 μL BBMT and incubated for two hours in 100 μL of the same media. {Note: BBMT medium is described by P. Brazeau et al., Proc. Natl. Acad. Sci. U.S.A., 79, 7909 (1980).} Thereafter, the cells were infected with HSV-1 strain F or KOS (multiplicity of infection =0.05 PFU/cell) in 50 μL of BBMT medium. Following one hour of virus absorption at 37°, the media was removed and the cells were washed with BBMT (2×100 μL). The cells were incubated with or without 100 μL of the appropriate concentration of test reagent in BBMT medium. After 24 hours of incubation at 37°, the extent of viral replication was determined by an ELISA assay; for instance, the following assay that detects the late glycoprotein C of HSV-1. Cells were fixed in a microtiter plate with 100 μL of 0.063% glutaraldehyde in phosphate buffered saline for 30 minutes at room temperature. The microtiter plate was then washed once with casein blocking solution and blocked with 200 μL of the same solution for one hour at room temperature. […] Color development was monitored at 450 nm using a microplate spectrophotometer. […] The following TABLE II provides examples of the results obtained when compounds of formula 1 were evaluated according to the cell culture assay (HSV-1 strain F) of this example.
For orientation: An ELISA detects its analyte on a solid surface through an enzyme-linked reagent.

Assay [1] deals with T1, HSV-1 ribonucleotide reductase (Human herpesvirus 1, UniProt P08543).
T1 construct: HSV-1 ribonucleotide reductase (partially purified) was obtained from quiescent BHK-21/Cl13 cells infected with strain F HSV-1 virus; made in house; host or cells: quiescent BHK-21/C13 hamster cells infected with HSV-1 strain F; native viral enzyme, partially purified
Briefly: Inhibition of Herpes Simplex Virus (HSV-1) ribonucleotide reductase. Type of assay: biochemical. To be noted: partially purified enzyme from HSV-1 strain F infected BHK-21/C13 cells; mean of four assays; read-out: IC50 (concentration producing 50% of the maximal inhibition of enzyme activity). The text has this:
HSV-1 ribonucleotide reductase (partially purified) was obtained from quiescent BHK-21/Cl13 cells infected with strain F HSV-1 virus at 10 plaque forming units/cell as described by E. A. Cohen et al., J. Gen. Virol., 66, 733 (1985).
The assay described by P. Gaudreau et al., J. Biol, Chem., 262, 12413 (1987), is used to evaluate the capability of the compounds of formula 1 to inhibit HSV-1 ribonucleotide reductase activity. The assay results are expressed as the concentration of the compound producing 50% of the maximal inhibition (IC50) of enzyme activity. The number of units of the enzyme preparation used in each assay was constant, based on the specific activity of the enzyme preparation. The results are relative to the activity obtained in control experiments without the test compound and represent the means of four assays that varied less than 10% with each other.

Where two headings read alike, the source gives them in different places.

T1 sequence (P08543 whole entry): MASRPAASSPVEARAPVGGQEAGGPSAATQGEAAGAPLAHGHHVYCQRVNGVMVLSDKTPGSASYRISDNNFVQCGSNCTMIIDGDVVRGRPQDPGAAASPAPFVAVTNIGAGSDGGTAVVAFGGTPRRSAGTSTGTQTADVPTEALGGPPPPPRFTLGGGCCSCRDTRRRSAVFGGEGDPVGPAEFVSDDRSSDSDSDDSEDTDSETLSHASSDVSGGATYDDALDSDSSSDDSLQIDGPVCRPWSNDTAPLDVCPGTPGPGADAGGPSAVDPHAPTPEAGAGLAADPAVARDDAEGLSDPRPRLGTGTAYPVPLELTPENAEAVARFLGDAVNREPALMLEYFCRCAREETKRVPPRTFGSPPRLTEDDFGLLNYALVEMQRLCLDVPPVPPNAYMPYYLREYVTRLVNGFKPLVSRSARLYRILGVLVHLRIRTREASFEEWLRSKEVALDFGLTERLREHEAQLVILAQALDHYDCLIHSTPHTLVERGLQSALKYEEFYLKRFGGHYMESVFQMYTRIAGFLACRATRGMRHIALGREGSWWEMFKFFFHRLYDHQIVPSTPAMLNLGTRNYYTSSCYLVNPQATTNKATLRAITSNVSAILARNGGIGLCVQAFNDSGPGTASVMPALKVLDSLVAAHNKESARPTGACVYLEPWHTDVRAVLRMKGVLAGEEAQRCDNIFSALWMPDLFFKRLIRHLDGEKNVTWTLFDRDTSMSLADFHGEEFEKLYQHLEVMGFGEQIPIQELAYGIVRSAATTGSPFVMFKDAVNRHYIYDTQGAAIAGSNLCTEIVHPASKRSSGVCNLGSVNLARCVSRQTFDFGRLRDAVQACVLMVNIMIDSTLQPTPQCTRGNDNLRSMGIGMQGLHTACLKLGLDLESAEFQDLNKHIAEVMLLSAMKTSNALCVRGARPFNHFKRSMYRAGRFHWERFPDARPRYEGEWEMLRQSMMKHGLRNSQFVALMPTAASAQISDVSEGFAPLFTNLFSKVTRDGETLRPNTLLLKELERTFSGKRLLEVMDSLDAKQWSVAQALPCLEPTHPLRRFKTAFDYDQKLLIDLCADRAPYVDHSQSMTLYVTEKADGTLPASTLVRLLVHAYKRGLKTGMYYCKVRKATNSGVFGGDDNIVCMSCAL

Turning to `Nc1nc2c(ncn2COCCO)c(=O)[nH]1` [ACV, acyclovir], the EC50 (commonly the concentration at which the effect is half-maximal) in the assay with HSV-1 KOS strain (ACV + 0.05 μM of TC, read-out: EC50 of ACV in combination) turned out to be 6300 nM; in the assay with HSV-1 KOS strain (ACV + 0.1 μM of TC, read-out: EC50 of ACV in combination), 3200 nM; with HSV-1 KOS strain (ACV + 0.15 μM of TC, read-out: EC50 of ACV in combination), 1790 nM; with HSV-1 KOS strain (ACV + 0.2 μM of TC, read-out: EC50 of ACV in combination), 1790 nM; in the assay on HSV-1 KOS strain (ACV + 0.3 μM of TC, read-out: EC50 of ACV in combination), 1000 nM; in the assay with HSV-1 KOS strain (ACV + 0.4 μM of TC, read-out: EC50 of ACV in combination), 500 nM. Further, the EC50 in the assay with HSV-1 KOS strain (compound alone, read-out: EC50) was 6950 nM.
Consider “{3-cyclohexyl-2(S)-(1-methylethyl)-1-oxopropyl}-(N-Me) Val-Tbg-CH2 --(R)--CH(CH2 C(O)CMe3)C(O)-Asp(cypn)-NH--(R)--CH (Et)CMe3 [R^1 =H and R^2 =CHMe2]”, for which the concentration giving a half-maximal response (EC50) in the assay with HSV-1 strain F is 200 nM. The IC50 in assay [1] amounted to 123 nM.
As to `CC[C@@H](NC(=O)[C@@H](NC(=O)[C@@H](CC(=O)[C@@H](NC(=O)[C@H](C(C)C)N(C)C(=O)[C@H](C)CC1CCCCC1)C(C)(C)C)CC(=O)C(C)(C)C)C1(C(=O)O)CCCC1)C(C)(C)C` [R^1 =H and R^2 =Me, (3-Cyclohexyl-2(R)-methyl-1-oxopropyl)-(N--Me) Val-Tbg-CH2 --(R)--CH(CH2 C(O)CMe3)--C (O)-Asp(cyPn)-NH--(R)--CH(Et)CMe3], the EC50 came out at 400 nM with HSV-1 strain F and 473 nM with HSV-1 KOS strain (compound alone, read-out: EC50). Further, the IC50 in assay [1] is 147 nM. The “Effect of combining with acyclovir on the EC50 of acyclovir (synergy, isobole method)” value with HSV-1 KOS strain (increasing concentrations of the title compound of example 9) was “proportional lowering of the EC50 of acyclovir”.
On to “(3-cyclohexyl-2 (R), 3 (R)-dimethyl-1-oxopropyl)-(N-Me) Val-Tbg-CH2 --(R)--CH (CH2 C(O) CMe3)C(O)-Asp (cyPn)-NH--(R)--CH (Et) CMe3 [R^1 and R^2 =Me]”, for which the EC50 with HSV-1 strain F came out at 200 nM. In addition, the IC50 in assay [1] was determined as 191 nM.

These data come from patent publication US5672586A, “Herpes ribonucleotide reductase inhibitors” (Bio-Mega/Boehringer Ingelheim Research, Inc., priority 1995, dated 1997).
